Consider 20 molecules from patent US20080182874A1, “Novel Compounds” (priority 2004, published 2008).

Where two headings read alike, the source gives them in different places.

Data set [1] concerns the target T1, P2X7 receptor (Homo sapiens, UniProt Q99572).
T1 construct: 200 μl of a suspension of THP-1 cells (2.5×10^6 cells/ml) containing 10^−4M ethidium bromide; endogenous in cells; host or cells: THP-1 cells
T1 sequence (Q99572 1-595): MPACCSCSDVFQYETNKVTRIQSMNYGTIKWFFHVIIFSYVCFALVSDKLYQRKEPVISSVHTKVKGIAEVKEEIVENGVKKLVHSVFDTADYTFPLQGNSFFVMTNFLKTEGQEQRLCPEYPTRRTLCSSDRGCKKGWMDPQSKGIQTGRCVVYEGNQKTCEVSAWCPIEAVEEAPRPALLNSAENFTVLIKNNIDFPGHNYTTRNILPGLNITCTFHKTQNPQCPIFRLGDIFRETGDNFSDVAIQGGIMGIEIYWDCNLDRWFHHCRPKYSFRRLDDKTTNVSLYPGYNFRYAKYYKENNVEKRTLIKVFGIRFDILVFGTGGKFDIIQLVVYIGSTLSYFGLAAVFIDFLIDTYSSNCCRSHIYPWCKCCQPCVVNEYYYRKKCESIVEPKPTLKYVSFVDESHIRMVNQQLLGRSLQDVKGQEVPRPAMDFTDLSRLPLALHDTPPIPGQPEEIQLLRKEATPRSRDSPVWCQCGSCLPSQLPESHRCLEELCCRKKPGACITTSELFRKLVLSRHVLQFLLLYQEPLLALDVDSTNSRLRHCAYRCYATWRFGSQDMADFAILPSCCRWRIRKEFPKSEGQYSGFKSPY
The experiment in a line: bbATP-induced ethidium bromide uptake in THP-1 cells (P2X7 antagonist activity). The data set is classed as cell-based. The source says: Certain compounds such as benzoylbenzoyl adenosine triphosphate (bbATP) are known to be agonists of the P2X7 receptor, effecting the formation of pores in the plasma membrane (Drug Development Research (1996), 37(3), p. 126). Consequently, when the receptor is activated using bbATP in the presence of ethidium bromide (a fluorescent DNA probe), an increase in the fluorescence of intracellular DNA-bound ethidium bromide is observed. The increase in fluorescence can be used as a measure of P2X7 receptor activation and therefore to quantify the effect of a compound on the P2X7 receptor.
In this manner, each of the title compounds of the Examples was tested for antagonist activity at the P2X7 receptor. […] The plate was covered with a plastics sheet and incubated at 37° C. for one hour. The plate was then read in a Perkin-Elmer fluorescent plate reader, excitation 520 nm, emission 595 nm, slit widths: Ex 15 nm, Em 20 nm. For the purposes of comparison, bbATP (a P2X7 receptor agonist) and pyridoxal 5-phosphate (a P2X7 receptor antagonist) were used separately in the test as controls.

The term melting point denotes the temperature, or range, at which the solid turns liquid. For the molecule `O=C(NCC12CC3CC(CC(C3)C1)C2)c1c(Cl)ccc2nc(N3CCC(C(=O)NO)CC3)ccc12` [Example 21, 6-chloro-2-[4-[(hydroxyamino)carbonyl]-1-piperidinyl]-N-(tricyclo[3.3.1.1^3,7]dec-1-ylmethyl)-5-quinolinecarboxamide], the melting point was 189 to 196 °C.
On to `O=C(CC12CC3CC(CC(C3)C1)C2)Nc1c(Cl)ccc2nc(N3CCC(C(=O)O)CC3)ccc12` [Example 1, 1-[6-Chloro-5-[(tricyclo[3.3.1.1^3,7]dec-1-ylacetyl)amino]-2-quinolinyl]-4-piperidinecarboxylic acid], for which the melting point lay within 240 to 241 °C.
On to `O=C(NCC12CC3CC(CC(C3)C1)C2)c1c(Cl)ccc2nc(N3C[C@@H]4[C@H](C3)[C@H]4C(=O)O)ccc12` [Example 19, (1R,5S)-3-[6-Chloro-5-[[(tricyclo[3.3.1.1^3,7]dec-1-ylmethyl)amino]carbonyl]-2-quinolinyl]-3-azabicyclo[3.1.0]hexane-6-carboxylic acid], for which the melting point fell in the range of 175 to 180 °C.
Consider `O=C(O)c1ccccc1-c1ccc2c(C(=O)NCC34CC5CC(CC(C5)C3)C4)c(Cl)ccc2n1` [Example 23, 2-[6-Chloro-5-[[(tricyclo[3.3.1.1^3,7]dec-1-ylmethyl)amino]carbonyl]-2-quinolinyl]-benzoic acid], for which the melting point was in the range of 156 to 158 °C.
With `CS(=O)(=O)NC(=O)C1CCN(c2ccc3c(C(=O)NCC45CC6CC(CC(C6)C4)C5)c(Cl)ccc3n2)CC1` [Example 20, 6-Chloro-2-[4-[[(methylsulfonyl)amino]carbonyl]-1-piperidinyl]-N-(tricyclo[3.3.1.1^3,7]dec-1-ylmethyl)-5-quinolinecarboxamide], the melting point lay in the range of 170 to 173 °C.
Molecule `O=C(NCC12CC3CC(CC(C3)C1)C2)c1c(Cl)ccc2nc(N3CCC[C@@H](C(=O)O)C3)ccc12` [Example 3, 1-[6-Chloro-5-[[(tricyclo[3.3.1.1^3,7]dec-1-ylmethyl)amino]carbonyl]-2-quinolinyl]-(3R)-3-piperidinecarboxylic acid] showed a melting point of 257 to 262 °C. This molecule showed an IC50 in data set [1] of 79.4 nM.
On to `O=C(NCC12CC3CC(CC(C3)C1)C2)c1c(Cl)ccc2nc(N3CCC(C(=O)O)(c4ccccc4)CC3)ccc12` [Example 18, 1-[6-Chloro-5-[[(tricyclo[3.3.1.1^3,7]dec-1-ylmethyl)amino]carbonyl]-2-quinolinyl]-4-phenyl-4-piperidinecarboxylic acid], for which the melting point is 235 to 237 °C.
Same read-out and setting: for `O=C(NCC12CC3CC(CC(C3)C1)C2)c1c(Cl)ccc2nc(N3CCC(n4cn[nH]c4=O)CC3)ccc12` [Example 4, 6-Chloro-2-[4-(1,5-dihydro-5-oxo-4H-1,2,4-triazol-4-yl)-1-piperidinyl]-N-(tricyclo[3.3.1.1^3,7]dec-1-ylmethyl)-5-quinolinecarboxamide] the value was 294 to 295 °C.
The same measure, in the same setting: for `O=C(NCC12CC3CC(CC(C3)C1)C2)c1c(Cl)ccc2nc(N3CCC[C@@H]3C(=O)O)ccc12` [Example 2, 1-[6-Chloro-5-[[(tricyclo[3.3.1.1^3,7]dec-1-ylmethyl)amino]carbonyl]-2-quinolinyl]-D-proline] the value was 157 to 160 °C; for `O=C(O)CN1CCN(c2ccc3c(C(=O)NCC45CC6CC(CC(C6)C4)C5)c(Cl)ccc3n2)CC1` [Example 5, 4-[6-Chloro-5-[[(tricyclo[3.3.1.1^3,7]dec-1-ylmethyl)amino]carbonyl]-2-quinolinyl]-1-piperazineacetic acid], 179 to 183 °C.
`O=C(NCC12CC3CC(CC(C3)C1)C2)c1c(Cl)ccc2nc(CCCCc3nnn[nH]3)ccc12` [Example 9, 6-Chloro-2-[4-(2H-tetrazol-5-yl)butyl]-N-(tricyclo[3.3.1.1^3,7]dec-1-ylmethyl)-5-quinolinecarboxamide]: the melting point was 221 °C.
Turning to `O=C(O)c1cccc(-c2ccc3c(C(=O)NCC45CC6CC(CC(C6)C4)C5)c(Cl)ccc3n2)c1` [Example 24, 3-[6-Chloro-5-[[(tricyclo[3.3.1.1^3,7]dec-1-ylmethyl)amino]carbonyl]-2-quinolinyl]-benzoic acid], the IC50 in data set [1] (THP-1 cells, 10^-5M bbATP agonist, ethidium bromide fluorescence, 37° C. for one hour, negative logarithm of concentration reducing bbATP agonist activity by 50%, read-out: pIC50 (converted)) is 63.1 nM.
Molecule `O=C(NCC12CC3CC(CC(C3)C1)C2)c1c(Cl)ccc2nc(N3CCC(C(=O)O)CC3)ccc12` [Example 7, 1-[6-Chloro-5-[[(tricyclo[3.3.1.1^3,7]dec-1-ylmethyl)amino]carbonyl]-2-quinolinyl]-4-piperidinecarboxylic acid] came in with a melting point of 231 to 235 °C.
As to `O=C(O)c1cncc(-c2ccc3c(C(=O)NCC45CC6CC(CC(C6)C4)C5)c(Cl)ccc3n2)c1` [Example 28, 5-[6-Chloro-5-[[(tricyclo[3.3.1.1^3,7]dec-1-ylmethyl)amino]carbonyl]-2-quinolinyl]-3-pyridinecarboxylic acid], the melting point amounted to 247 °C.
For `O=C(NCC12CC3CC(CC(C3)C1)C2)c1c(Cl)ccc2nc(N3CC[C@H](NCCc4nnn[nH]4)C3)ccc12` [Example 6, 6-Chloro-2-[(3S)-3-[[2-(2H-tetrazol-5-yl)ethyl]amino]-1-pyrrolidinyl]-N-(tricyclo[3.3.1.1^3,7]dec-1-ylmethyl)-5-quinolinecarboxamide], the melting point fell in the range of 174 to 177 °C.
Still for that read-out and setting: next, `O=C(O)CCNc1ccc2c(C(=O)NCC34CC5CC(CC(C5)C3)C4)c(Cl)ccc2n1` [Example 27, N-[6-Chloro-5-[[(tricyclo[3.3.1.1^3,7]dec-1-ylmethyl)amino]carbonyl]-2-quinolinyl]-β-alanine]: 251 to 252 °C; `O=C(O)CC1CCN(c2ccc3c(C(=O)NCC45CC6CC(CC(C6)C4)C5)c(Cl)ccc3n2)CC1` [Example 8, 1-[6-Chloro-5-[[(tricyclo[3.3.1.1^3,7]dec-1-ylmethyl)amino]carbonyl]-2-quinolinyl]-4-piperidineacetic acid]: 212 to 214 °C.
Turning to `O=C(NCC12CC3CC(CC(C3)C1)C2)c1c(Cl)ccc2nc(N3CCC(O)(C(=O)O)CC3)ccc12` [Example 17, 1-[6-Chloro-5-[[(tricyclo[3.3.1.1^3,7]dec-1-ylmethyl)amino]carbonyl]-2-quinolinyl]-4-hydroxy-4-piperidinecarboxylic acid], the melting point fell in the range of 200 to 204 °C.
With `O=C(O)CCN[C@H]1CCCN(c2ccc3c(C(=O)NCC45CC6CC(CC(C6)C4)C5)c(Cl)ccc3n2)C1` [Example 12, N-[(3S)-1-[6-Chloro-5-[[(tricyclo[3.3.1.1^3,7]dec-1-ylmethyl)amino]carbonyl]-2-quinolinyl]-3-piperidinyl]-β-alanine], the melting point lay in the range of 176 to 189 °C. For the same molecule, the IC50 in data set [1] was 15.8 nM.
Molecule `O=C(O)c1ccc(-c2ccc3c(C(=O)NCC45CC6CC(CC(C6)C4)C5)c(Cl)ccc3n2)cc1` [Example 25, 4-[6-Chloro-5-[[(tricyclo[3.3.1.1^3,7]dec-1-ylmethyl)amino]carbonyl]-2-quinolinyl]-benzoic acid] returned a melting point of 316 to 317 °C.
